The text below walks through data of patent US8013153B2, “Substituted pyrimidine kinase inhibitors” (Janssen Pharmaceutica, N.V., priority 2006, dated 2011).

One experiment has as its system HCT-116 colon carcinoma. Nature of the experiment: Inhibition of in vitro cell proliferation (HCT116).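 Note: cells exposed to compound for 24 h, then 14C-thymidine added for a further 24 h and its uptake into DNA counted by scintillation, DMSO-only wells as control.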 It is filed as cell-based, human.
For experiment [1], the system named is HeLa cervical adenocarcinoma. Kind of experiment: Inhibition of in vitro cell proliferation (HeLa).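 Note: cells exposed to compound for 24 h, then labelled 24 h with methyl 14C-thymidine, with uptake into DNA counted by scintillation against DMSO-only control wells.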 It is filed as cell-based, human. Particulars: 14C-thymidine incorporation. On the technique in general: Dividing cells build labelled thymidine or BrdU into new DNA.
For the next experiment, the target named is T1, CDK1:Cyclin-B (Homo sapiens, UniProt P06493).
T1 construct: purchased New England Biolabs, Beverly, Mass; 6020; host or cells: insect cells
Nature of the experiment: CDK1 Screening Assay. Type of experiment: biochemical.

Experiment [2] deals with T2, rat VEGF-R2 kinase domain (Rattus norvegicus, UniProt O08775).
T2 construct: amino acids 786-1343 of the rat VEGF-R2 kinase domain; polyhistidine (N)
Kind of experiment: VEGF-R2 Screening Assay. Type of experiment: biochemical.

The next experiment concerns the target T3, HER2 cytoplasmic domain (Homo sapiens, UniProt P04626).
T3 construct: polyhistidine (N)
Nature of the experiment: HER2 Kinase Screening Assay. Type of experiment: biochemical. Particulars: > means no observed 50% inhibition at the indicated test concentration; ~ means approximately 50% inhibition at that concentration.

For another experiment, the target named is T4, murine Aurora-A (Mus musculus, UniProt P97477).
T4 construct: replaced with the full length protein encoding the murine Aurora-A; made in house; host or cells: sf9 insect cells
T4 sequence (P97477 1-395): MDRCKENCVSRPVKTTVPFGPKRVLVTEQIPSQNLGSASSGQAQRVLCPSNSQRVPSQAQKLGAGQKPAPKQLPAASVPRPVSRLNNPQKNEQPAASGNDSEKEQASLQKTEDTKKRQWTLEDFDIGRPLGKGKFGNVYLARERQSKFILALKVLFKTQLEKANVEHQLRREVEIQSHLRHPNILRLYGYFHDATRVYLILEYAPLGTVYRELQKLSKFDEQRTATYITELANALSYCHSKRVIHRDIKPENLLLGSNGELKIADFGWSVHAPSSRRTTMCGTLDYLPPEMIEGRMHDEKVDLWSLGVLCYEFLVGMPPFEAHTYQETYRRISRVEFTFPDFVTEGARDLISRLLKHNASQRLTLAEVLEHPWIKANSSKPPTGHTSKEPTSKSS
Kind of experiment: Aurora-A Screening Assay. Type of experiment: biochemical.

A further experiment deals with A375 malignant melanoma. Kind of experiment: Inhibition of in vitro cell proliferation (A375).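 Note: cells plated for 24 h, given compound for 24 h, then labelled with 14C-thymidine for another 24 h, with DMSO-only wells as control and counts read by scintillation.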 Type of experiment: cell-based, human.
The mark [3] stands for this setting: Homo sapiens, HCT-116, 14C-thymidine incorporation.
Setting [4] is: > means no observed 50% inhibition at the indicated test concentration, ~ means approximately 50% inhibition at that concentration, read-out: IC50 VEGF-R2.
[5] abbreviates: Homo sapiens, A-375, 14C-thymidine incorporation.
Where [6] appears, read: > means no observed 50% inhibition at the indicated test concentration, ~ means approximately 50% inhibition at that concentration.

Where two headings read alike, the source gives them in different places.

T1 sequence (P06493 whole entry): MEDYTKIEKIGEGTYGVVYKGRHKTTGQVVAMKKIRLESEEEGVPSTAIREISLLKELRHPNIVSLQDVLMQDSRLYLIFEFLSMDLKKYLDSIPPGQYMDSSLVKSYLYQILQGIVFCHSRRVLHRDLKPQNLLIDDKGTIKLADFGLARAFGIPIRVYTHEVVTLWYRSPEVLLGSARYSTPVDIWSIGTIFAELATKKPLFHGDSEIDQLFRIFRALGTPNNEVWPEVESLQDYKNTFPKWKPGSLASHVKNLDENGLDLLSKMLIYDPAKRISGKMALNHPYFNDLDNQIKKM
T1 sequence (P14635 whole entry partner): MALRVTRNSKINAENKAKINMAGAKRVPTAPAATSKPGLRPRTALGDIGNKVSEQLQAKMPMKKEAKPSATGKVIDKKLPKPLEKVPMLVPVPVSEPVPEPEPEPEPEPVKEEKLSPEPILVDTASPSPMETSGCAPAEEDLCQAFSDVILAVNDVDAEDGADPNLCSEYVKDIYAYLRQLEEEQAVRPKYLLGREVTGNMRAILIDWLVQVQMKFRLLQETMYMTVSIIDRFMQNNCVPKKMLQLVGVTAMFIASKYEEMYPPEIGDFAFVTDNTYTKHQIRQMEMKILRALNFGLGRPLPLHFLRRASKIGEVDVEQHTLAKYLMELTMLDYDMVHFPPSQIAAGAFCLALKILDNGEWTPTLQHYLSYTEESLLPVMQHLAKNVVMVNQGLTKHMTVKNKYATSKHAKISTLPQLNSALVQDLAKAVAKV
T2 sequence (O08775 786-1343): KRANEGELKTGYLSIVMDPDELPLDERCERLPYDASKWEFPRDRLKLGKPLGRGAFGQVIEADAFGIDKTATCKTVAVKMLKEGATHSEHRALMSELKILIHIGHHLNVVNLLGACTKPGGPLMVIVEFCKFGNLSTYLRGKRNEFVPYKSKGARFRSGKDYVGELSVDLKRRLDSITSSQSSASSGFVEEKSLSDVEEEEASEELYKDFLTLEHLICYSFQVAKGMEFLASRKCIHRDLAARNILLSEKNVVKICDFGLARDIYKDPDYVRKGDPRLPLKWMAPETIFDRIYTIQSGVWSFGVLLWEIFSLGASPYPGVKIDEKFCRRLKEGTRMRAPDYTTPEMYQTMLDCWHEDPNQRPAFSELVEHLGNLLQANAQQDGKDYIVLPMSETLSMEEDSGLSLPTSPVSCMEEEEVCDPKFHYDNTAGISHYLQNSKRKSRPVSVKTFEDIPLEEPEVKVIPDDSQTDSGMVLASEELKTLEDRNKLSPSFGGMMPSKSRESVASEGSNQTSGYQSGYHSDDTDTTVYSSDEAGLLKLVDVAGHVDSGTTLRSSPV
T3 sequence (P04626 676-1255 limits assumed): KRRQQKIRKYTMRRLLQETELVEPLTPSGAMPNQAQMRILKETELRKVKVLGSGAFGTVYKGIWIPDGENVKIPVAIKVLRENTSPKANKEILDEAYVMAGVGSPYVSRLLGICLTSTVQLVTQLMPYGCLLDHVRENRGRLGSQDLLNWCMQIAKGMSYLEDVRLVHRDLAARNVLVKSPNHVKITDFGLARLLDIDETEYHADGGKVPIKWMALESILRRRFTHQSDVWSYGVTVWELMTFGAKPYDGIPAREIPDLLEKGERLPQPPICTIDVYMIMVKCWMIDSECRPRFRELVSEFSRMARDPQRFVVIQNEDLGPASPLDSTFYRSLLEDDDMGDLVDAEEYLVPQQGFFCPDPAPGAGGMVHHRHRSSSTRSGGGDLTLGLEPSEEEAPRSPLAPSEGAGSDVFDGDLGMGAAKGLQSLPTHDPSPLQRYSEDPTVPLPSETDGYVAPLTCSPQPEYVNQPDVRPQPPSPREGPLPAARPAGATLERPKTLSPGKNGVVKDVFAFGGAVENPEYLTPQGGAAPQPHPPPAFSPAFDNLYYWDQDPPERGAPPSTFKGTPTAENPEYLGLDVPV

For `CON=Cc1c(N)ncnc1Oc1ccc(NC(=O)Nc2cccc(C)c2)c(Cl)c1` [Cpd 76, 1-{4-[6-amino-5-(methoxyimino-methyl)-pyrimidin-4-yloxy]-2-chloro-phenyl}-3-m-tolyl-urea], the IC50 (commonly the concentration that gives 50% inhibition) is over 10 µM with HCT-116 colon carcinoma (setting [3]); over 10 µM in experiment [1] (Homo sapiens); over 100 µM on CDK1:Cyclin-B; 0.002 µM in experiment [2] (setting [4]); over 10 µM at HER2 cytoplasmic domain; over 100 µM at murine Aurora-A. This compound also showed an IC50 in the experiment on A375 malignant melanoma (setting [5]) of over 10 µM.

As to `Cc1cc2c(F)c(Oc3ncnc(N)c3C=NOCCCN3CCCCC3)ccc2[nH]1` [Cpd 20, 4-amino-6-(4-fluoro-2-methyl-1H-indol-5-yloxy)-pyrimidine-5-carbaldehyde O-(3-piperidin-1-yl-propyl)-oxime], the IC50 in the experiment on HCT-116 colon carcinoma (setting [3]) is 2.78 µM; in experiment [1] (Homo sapiens) it was 0.715 µM; on CDK1:Cyclin-B it was over 100 µM; in experiment [2] (setting [4]) it was 0.037 µM; against HER2 cytoplasmic domain, 1.55 µM; against murine Aurora-A it was over 100 µM. The same compound yielded an IC50 with A375 malignant melanoma (setting [5]) of 0.429 µM.

For the compound `CON=Cc1c(N)ncnc1Oc1ccc(NC(=O)Nc2ccc(OC)cc2)c(Cl)c1` [Cpd 63, 1-{4-[6-amino-5-(methoxyimino-methyl)-pyrimidin-4-yloxy]-2-chloro-phenyl}-3-(4-methoxy-phenyl)-urea], the IC50 was over 10 µM in the experiment with HCT-116 colon carcinoma (14C-thymidine incorporation); over 10 µM in experiment [1]; over 100 µM against CDK1:Cyclin-B (setting [6]); 0.0022 µM in experiment [2] (setting [4]); over 10 µM on HER2 cytoplasmic domain; over 100 µM against murine Aurora-A (setting [6]). Further, the IC50 in the experiment with A375 malignant melanoma (14C-thymidine incorporation) was over 10 µM.

As for `CON=Cc1c(N)ncnc1Oc1ccc(NC(=O)Nc2ccc(C)cc2)c(Cl)c1` [Cpd 77, 1-{4-[6-amino-5-(methoxyimino-methyl)-pyrimidin-4-yloxy]-2-chloro-phenyl}-3-p-tolyl-urea], the IC50 in the experiment on HCT-116 colon carcinoma (setting [3]) was over 100 µM; in experiment [1] (Homo sapiens) it was over 100 µM; against CDK1:Cyclin-B, over 100 µM; in experiment [2] (setting [4]), 0.0016 µM; at HER2 cytoplasmic domain, over 100 µM; against murine Aurora-A, over 100 µM. Further, the IC50 in the experiment on A375 malignant melanoma (setting [5]) was over 100 µM.

In the case of `CON=Cc1c(N)ncnc1Oc1ccc(NC(=O)Nc2cccnc2)c(Cl)c1` [Cpd 87, 1-{4-[6-amino-5-(methoxyimino-methyl)-pyrimidin-4-yloxy]-2-chloro-phenyl}-3-pyridin-3-yl-urea], the IC50 in the experiment on HCT-116 colon carcinoma (setting [3]) was 4.67 µM; in experiment [1] (Homo sapiens) it was 4.63 µM; at CDK1:Cyclin-B it was over 100 µM; in experiment [2] (setting [4]), 0.01 µM; against HER2 cytoplasmic domain it was over 1 µM; at murine Aurora-A it was over 100 µM. In the experiment on A375 malignant melanoma (setting [5]), this compound had an IC50 of 3.41 µM.

On to `C=CCNC(=O)Nc1ccc(Oc2ncnc(N)c2C=NOC)cc1Cl` [Cpd 53, 1-allyl-3-{4-[6-amino-5-(methoxyimino-methyl)-pyrimidin-4-yloxy]-2-chloro-phenyl}-urea], for which the IC50 with HCT-116 colon carcinoma (setting [3]) is over 1 µM; in experiment [1] (Homo sapiens), over 1 µM; against CDK1:Cyclin-B, over 100 µM; in experiment [2] (setting [4]), 0.0191 µM; at HER2 cytoplasmic domain it was over 10 µM; against murine Aurora-A, over 100 µM. The compound also displayed an IC50 in the experiment on A375 malignant melanoma (setting [5]) of over 1 µM.

In the case of `CON=Cc1c(N)ncnc1Oc1ccc(NC(=O)Nc2cccc(F)c2)c(Cl)c1` [Cpd 57, 1-{4-[6-amino-5-(methoxyimino-methyl)-pyrimidin-4-yloxy]-2-chloro-phenyl}-3-(3-fluoro-phenyl)-urea], the IC50 is over 10 µM in the experiment on HCT-116 colon carcinoma (setting [3]); over 10 µM in experiment [1] (Homo sapiens); over 100 µM against CDK1:Cyclin-B; 0.0017 µM in experiment [2] (setting [4]); over 10 µM against HER2 cytoplasmic domain; over 100 µM on murine Aurora-A. For the same compound, the IC50 in the experiment on A375 malignant melanoma (setting [5]) is over 10 µM.

Take `CON=Cc1c(N)ncnc1Oc1ccc2c(c1)cc(C)n2C(=O)NCc1ccccc1` [Cpd 47, 5-[6-amino-5-(methoxyimino-methyl)-pyrimidin-4-yloxy]-2-methyl-indole-1-carboxylic acid benzylamide]: the IC50 in the experiment on HCT-116 colon carcinoma (setting [3]) is over 10 µM; in experiment [1] (Homo sapiens), over 10 µM; at CDK1:Cyclin-B, over 100 µM; in experiment [2] (setting [4]), over 100 µM; against HER2 cytoplasmic domain, over 100 µM; at murine Aurora-A, over 100 µM. Also, in the experiment with A375 malignant melanoma (setting [5]), the IC50 is over 10 µM.

For the compound `CON=Cc1c(N)ncnc1Oc1ccc(NC(=O)NCCN(C)C)c(Cl)c1` [Cpd 82, 1-{4-[6-amino-5-(methoxyimino-methyl)-pyrimidin-4-yloxy]-2-chloro-phenyl}-3-(2-dimethylamino-ethyl)-urea], the IC50 in the experiment with HCT-116 colon carcinoma (setting [3]) was over 10 µM; in experiment [1] (Homo sapiens), over 10 µM; at CDK1:Cyclin-B it was over 100 µM; in experiment [2] (setting [4]) it was 0.285 µM; against HER2 cytoplasmic domain, over 10 µM; against murine Aurora-A, over 100 µM. Also, the IC50 with A375 malignant melanoma (setting [5]) was over 10 µM.

`CON=Cc1c(N)ncnc1Oc1ccc(NC(=O)Nc2ccccc2F)c(Cl)c1` [Cpd 56, 1-{4-[6-amino-5-(methoxyimino-methyl)-pyrimidin-4-yloxy]-2-chloro-phenyl}-3-(2-fluoro-phenyl)-urea]: the IC50 with HCT-116 colon carcinoma (setting [3]) was over 10 µM; in experiment [1] (Homo sapiens) it was over 10 µM; against CDK1:Cyclin-B, over 100 µM; in experiment [2] (IC50 VEGF-R2) it was 0.0033 µM; against HER2 cytoplasmic domain, over 10 µM; at murine Aurora-A, over 100 µM. This compound also gave an IC50 in the experiment with A375 malignant melanoma (setting [5]) of over 10 µM.

`CCNC(=O)Nc1ccc(Oc2ncnc(N)c2C=NOC)c(Cl)c1` [Cpd 71, 1-{4-[6-amino-5-(methoxyimino-methyl)-pyrimidin-4-yloxy]-3-chloro-phenyl}-3-ethyl-urea]: the IC50 in the experiment on HCT-116 colon carcinoma (setting [3]) was 4.79 µM; in experiment [1] (Homo sapiens), 3.98 µM; against CDK1:Cyclin-B, over 100 µM; in experiment [2] (setting [4]) it was 0.179 µM; on HER2 cytoplasmic domain, over 1 µM; against murine Aurora-A, over 10 µM. In the experiment with A375 malignant melanoma (setting [5]), half-maximal inhibition (IC50) required 3.09 µM.

Consider `CCCCNC(=O)Nc1ccc(Oc2ncnc(N)c2C=NOC)cc1Cl` [Cpd 64, 1-{4-[6-amino-5-(methoxyimino-methyl)-pyrimidin-4-yloxy]-2-chloro-phenyl}-3-butyl-urea], for which the IC50 in the experiment with HCT-116 colon carcinoma (setting [3]) is over 100 µM; in experiment [1] (Homo sapiens) it was over 100 µM; at CDK1:Cyclin-B, over 100 µM; in experiment [2] (setting [4]), 0.0072 µM; against HER2 cytoplasmic domain, over 100 µM; against murine Aurora-A it was over 100 µM. The IC50 in the experiment on A375 malignant melanoma (setting [5]) is over 100 µM.

In the case of `CNC(=O)Nc1ccc(Oc2ncnc(N)c2C=NOC)cc1Br` [Cpd 73, 1-{4-[6-amino-5-(methoxyimino-methyl)-pyrimidin-4-yloxy]-2-bromo-phenyl}-3-methyl-urea], the IC50 was over 10 µM in the experiment with HCT-116 colon carcinoma (setting [3]); over 10 µM in experiment [1] (Homo sapiens); over 10 µM on CDK1:Cyclin-B; over 100 µM in experiment [2] (setting [4]); over 1 µM at HER2 cytoplasmic domain; over 10 µM against murine Aurora-A. This compound also registered an IC50 with A375 malignant melanoma (setting [5]) of over 10 µM.

Consider `CON=Cc1c(N)ncnc1Oc1ccc(NC(=O)Nc2ccccc2OC)c(Cl)c1` [Cpd 58, 1-{4-[6-amino-5-(methoxyimino-methyl)-pyrimidin-4-yloxy]-2-chloro-phenyl}-3-(2-methoxy-phenyl)-urea], for which the IC50 with HCT-116 colon carcinoma (setting [3]) was 8.19 µM; in experiment [1] (Homo sapiens), 11.9 µM; against CDK1:Cyclin-B, over 100 µM; in experiment [2] (setting [4]) it was 0.0025 µM; at HER2 cytoplasmic domain it was 1.7 µM; on murine Aurora-A, over 100 µM. For the same compound, the IC50 in the experiment with A375 malignant melanoma (setting [5]) was 5.06 µM.

As for `CON=Cc1c(N)ncnc1Oc1ccc(NC(=O)Nc2nc(C)c(C)s2)c(Cl)c1` [Cpd 92, 1-{4-[6-amino-5-(methoxyimino-methyl)-pyrimidin-4-yloxy]-2-chloro-phenyl}-3-(4,5-dimethyl-thiazol-2-yl)-urea], the IC50 in the experiment on HCT-116 colon carcinoma (setting [3]) is 16.9 µM; in experiment [1] (Homo sapiens) it was 23.4 µM; on CDK1:Cyclin-B, over 100 µM; in experiment [2] (setting [4]) it was 0.002 µM; on HER2 cytoplasmic domain, over 1 µM; at murine Aurora-A, over 100 µM. This compound also came in with an IC50 with A375 malignant melanoma (setting [5]) of 6.92 µM.

As to `CON=Cc1c(N)ncnc1Oc1ccc(NC(=O)NC(C)C)c(Cl)c1` [Cpd 80, 1-{4-[6-amino-5-(methoxyimino-methyl)-pyrimidin-4-yloxy]-2-chloro-phenyl}-3-isopropyl-urea], the IC50 in the experiment on HCT-116 colon carcinoma (setting [3]) is over 10 µM; in experiment [1] (Homo sapiens), over 10 µM; at CDK1:Cyclin-B, over 100 µM; in experiment [2] (setting [4]), 0.0729 µM; against HER2 cytoplasmic domain, over 10 µM; against murine Aurora-A, over 10 µM. In addition, the IC50 in the experiment with A375 malignant melanoma (setting [5]) was over 1 µM.

As to `CON=Cc1c(N)ncnc1Oc1ccc(NC(=O)Nc2ccccc2Cl)c(Cl)c1` [Cpd 55, 1-{4-[6-amino-5-(methoxyimino-methyl)-pyrimidin-4-yloxy]-2-chloro-phenyl}-3-(2-chloro-phenyl)-urea], the IC50 with HCT-116 colon carcinoma (setting [3]) was over 10 µM; in experiment [1] (Homo sapiens), over 10 µM; against CDK1:Cyclin-B, over 100 µM; in experiment [2] (setting [4]), 0.0026 µM; against HER2 cytoplasmic domain it was 1.82 µM; on murine Aurora-A, over 10 µM. The compound also gave an IC50 in the experiment with A375 malignant melanoma (setting [5]) of over 10 µM.
